Results published in patent US9809623B2, “α4β7 peptide monomer and dimer antagonists” (Protagonist Therapeutics, Inc., priority 2014, dated 2017).
Numbered stars: 1 amine (or outer) side, 2 acyl side, 3 side chain; on linkers, the order of the positions; unused ones are H or OH. Bridge positions count the residues as written; N and C are the ends. Square brackets hold non-standard residues; d marks the D form. Peptide text beside a SMILES is read from it. I, II: the chains in the order shown. * marks the point of attachment. X4 = O=C(CCOCCOCCOCCOCCOCCOCCOCCOCCOCCOCCOCCOCCOCCOCCC(=O)[*:2])[*:1]; Phe(4-tBu) = CC(C)(C)c1ccc(C[C@H](N)C(=O)O)cc1; Bip = N[C@@H](Cc1ccc(-c2ccccc2)cc1)C(=O)O; 2Nal = N[C@@H](Cc1ccc2ccccc2c1)C(=O)O; Diglycolyl = O=C(COCC(=O)[*:2])[*:1]; Oleoyl = CCCCCCCC/C=C\CCCCCCCC(=O)*; NMeR = CN[C@@H](CCCNC(=N)N)C(=O)O; Palmitoyl = CCCCCCCCCCCCCCCC(=O)*; Tic = O=C(O)[C@@H]1Cc2ccccc2CN1; β3hE = N[C@@H](CCC(=O)O)CC(=O)O; Cha = N[C@@H](CC1CCCCC1)C(=O)O; Pen = CC(C)(S)[C@H](N)C(=O)O; Isovaleryl = CC(C)CC(=O)*

Biological target: α4β7 (Homo sapiens, UniProt P13612+P26010)
Sequence (P13612 34-1032): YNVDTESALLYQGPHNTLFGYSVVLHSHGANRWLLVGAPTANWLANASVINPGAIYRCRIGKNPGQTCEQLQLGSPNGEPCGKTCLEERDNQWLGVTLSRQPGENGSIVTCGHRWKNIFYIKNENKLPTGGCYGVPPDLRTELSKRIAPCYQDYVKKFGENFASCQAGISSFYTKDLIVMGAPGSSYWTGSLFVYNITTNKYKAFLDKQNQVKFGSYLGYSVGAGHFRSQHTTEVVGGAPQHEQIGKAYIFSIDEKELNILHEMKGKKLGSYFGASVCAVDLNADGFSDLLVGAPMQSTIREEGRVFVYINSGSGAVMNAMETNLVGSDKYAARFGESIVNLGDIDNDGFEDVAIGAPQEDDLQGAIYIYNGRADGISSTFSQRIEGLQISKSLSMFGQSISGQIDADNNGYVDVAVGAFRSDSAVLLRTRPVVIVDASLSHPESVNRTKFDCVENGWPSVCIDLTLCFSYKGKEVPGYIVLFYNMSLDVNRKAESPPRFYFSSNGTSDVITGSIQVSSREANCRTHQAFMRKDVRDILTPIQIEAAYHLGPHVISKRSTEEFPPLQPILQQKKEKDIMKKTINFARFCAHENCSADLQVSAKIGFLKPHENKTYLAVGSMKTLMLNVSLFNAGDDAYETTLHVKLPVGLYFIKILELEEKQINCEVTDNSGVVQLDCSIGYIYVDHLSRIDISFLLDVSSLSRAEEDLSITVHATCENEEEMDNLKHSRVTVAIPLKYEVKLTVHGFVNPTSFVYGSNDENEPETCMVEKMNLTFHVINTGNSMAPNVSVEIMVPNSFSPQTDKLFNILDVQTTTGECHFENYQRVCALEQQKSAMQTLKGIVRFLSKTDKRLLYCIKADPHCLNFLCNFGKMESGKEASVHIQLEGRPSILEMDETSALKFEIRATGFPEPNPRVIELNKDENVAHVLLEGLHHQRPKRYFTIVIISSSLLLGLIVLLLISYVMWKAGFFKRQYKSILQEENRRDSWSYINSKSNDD
Sequence (P26010 20-798): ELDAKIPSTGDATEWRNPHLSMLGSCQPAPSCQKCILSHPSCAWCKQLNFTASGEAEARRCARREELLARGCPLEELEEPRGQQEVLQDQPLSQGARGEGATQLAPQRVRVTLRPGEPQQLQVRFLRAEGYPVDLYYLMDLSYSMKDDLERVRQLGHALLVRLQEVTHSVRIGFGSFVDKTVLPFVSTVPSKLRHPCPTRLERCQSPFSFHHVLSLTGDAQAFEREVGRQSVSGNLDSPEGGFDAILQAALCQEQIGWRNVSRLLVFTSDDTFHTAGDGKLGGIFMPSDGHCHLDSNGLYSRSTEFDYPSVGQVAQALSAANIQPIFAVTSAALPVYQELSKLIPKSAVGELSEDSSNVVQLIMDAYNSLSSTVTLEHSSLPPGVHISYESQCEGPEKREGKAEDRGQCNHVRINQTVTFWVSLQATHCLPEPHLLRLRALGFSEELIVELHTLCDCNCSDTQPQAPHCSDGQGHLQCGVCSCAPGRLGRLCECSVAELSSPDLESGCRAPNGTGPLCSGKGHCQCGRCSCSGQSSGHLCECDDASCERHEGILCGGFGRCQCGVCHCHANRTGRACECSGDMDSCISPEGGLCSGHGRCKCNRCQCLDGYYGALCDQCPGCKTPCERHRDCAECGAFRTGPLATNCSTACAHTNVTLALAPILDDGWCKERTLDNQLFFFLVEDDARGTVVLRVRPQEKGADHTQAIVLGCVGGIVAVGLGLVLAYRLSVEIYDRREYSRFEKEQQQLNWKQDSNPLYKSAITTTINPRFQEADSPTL
Assay: α4β7-MAdCAM Cell Adhesion Assay (RPMI 8866 human cells)
Format: cell-based
Design: host or cells: RPMI 8866 human B lymphoblastoid cells
Settings: Table 3-B, Potency (α4β7); range classes; read-out: α4β7 cell (Hu) IC50
In short: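 Washed RPMI 8866 cells (200,000/well) in DMEM with 0.1% BSA, 10 mM HEPES pH 7, 1 mM MnCl2 adhered to rh MAdCAM-1/Fc-coated wells with serially diluted peptides, 30-45 min at 37 °C. After three washes, bound cells quantified by MTT, A570, cell-free background subtracted for dose response.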

CC(=O)N[C@@H]1C(=O)N(C)[C@@H](CCCNC(=N)N)C(=O)N[C@@H](CO)C(=O)N[C@@H](CC(=O)O)C(=O)N[C@@H]([C@@H](C)O)C(=O)N[C@@H](CC(C)C)C(=O)N[C@H](C(=O)N2Cc3ccccc3C[C@H]2C(=O)N[C@H](CCC(=O)O)C(=O)N[C@H](CCCCNC(=O)COCC(=O)NCCCC[C@@H](NC(=O)[C@@H](CCC(=O)O)NC(=O)[C@@H]2Cc3ccccc3CN2C(=O)[C@@H]2CSSC(C)(C)[C@H](NC(C)=O)C(=O)N(C)[C@@H](CCCNC(=N)N)C(=O)N[C@@H](CO)C(=O)N[C@@H](CC(=O)O)C(=O)N[C@@H]([C@@H](C)O)C(=O)N[C@@H](CC(C)C)C(=O)N2)C(N)=O)C(N)=O)CSSC1(C)C [compound 93] (I: Ac-[Pen][NMeR]SDTLC[Tic][dE][dK]-NH2 / II: Ac-[Pen][NMeR]SDTLC[Tic][dE][dK]-NH2; disulfide I:1-I:7, II:1-II:7; linker I:10-II:10 via Diglycolyl)
IC50: 500 to 1000 nM

CC(=O)N[C@@H]1C(=O)N(C)[C@@H](CCCNC(=N)N)C(=O)N[C@@H](CO)C(=O)N[C@@H](CC(=O)O)C(=O)N[C@@H]([C@@H](C)O)C(=O)N[C@@H](CC(C)C)C(=O)N[C@H](C(=O)N[C@@H](Cc2c[nH]c3ccccc23)C(=O)N[C@H](CCC(=O)O)C(=O)N[C@H](CCCCNC(=O)CN(CC(=O)NCCCC[C@@H](NC(=O)[C@@H](CCC(=O)O)NC(=O)[C@H](Cc2c[nH]c3ccccc23)NC(=O)[C@H]2NC(=O)[C@H](CC(C)C)NC(=O)[C@H]([C@@H](C)O)NC(=O)[C@H](CC(=O)O)NC(=O)[C@H](CO)NC(=O)[C@H](CCCNC(=N)N)N(C)C(=O)[C@@H](NC(C)=O)C(C)(C)SSC2(C)C)C(N)=O)C(=O)CCN)C(N)=O)C(C)(C)SSC1(C)C [compound 70]
IC50: 25 to 50 nM

CC(=O)N[C@@H]1C(=O)N(C)[C@@H](CCCNC(=N)N)C(=O)N[C@@H](CO)C(=O)N[C@@H](CC(=O)O)C(=O)N[C@@H]([C@@H](C)O)C(=O)N[C@@H](CC(C)C)C(=O)N[C@H](C(=O)N[C@@H](Cc2ccc(O)cc2)C(=O)N[C@H](CCC(=O)O)C(=O)N[C@H](CCCCNC(=O)COCC(=O)NCCCC[C@@H](NC(=O)[C@@H](CCC(=O)O)NC(=O)[C@H](Cc2ccc(O)cc2)NC(=O)[C@H]2NC(=O)[C@H](CC(C)C)NC(=O)[C@H]([C@@H](C)O)NC(=O)[C@H](CC(=O)O)NC(=O)[C@H](CO)NC(=O)[C@H](CCCNC(=N)N)N(C)C(=O)[C@@H](NC(C)=O)C(C)(C)SSC2(C)C)C(N)=O)C(N)=O)C(C)(C)SSC1(C)C [compound 123] (I: Ac-[Pen][NMeR]SDTL[Pen]Y[dE][dK]-NH2 / II: Ac-[Pen][NMeR]SDTL[Pen]Y[dE][dK]-NH2; disulfide I:1-I:7, II:1-II:7; linker I:10-II:10 via Diglycolyl)
IC50: 50 to 100 nM

CCCCCCCCCCCCCCCC(=O)N[C@@H]1C(=O)N(C)[C@@H](CCCNC(=N)N)C(=O)N[C@@H](CO)C(=O)N[C@@H](CC(=O)O)C(=O)N[C@@H]([C@@H](C)O)C(=O)N[C@@H](CC(C)C)C(=O)N[C@H](C(=O)N[C@@H](Cc2ccc(C(C)(C)C)cc2)C(=O)N[C@@H](CCC(=O)O)CC(=O)N[C@H](CCCCN)C(N)=O)C(C)(C)SSC1(C)C [compound 178] (Palmitoyl-[Pen][NMeR]SDTL[Pen][Phe(4-tBu)][β3hE][dK]-NH2; disulfide 1-7)
IC50: 1000 to 10000 nM

CC(=O)N[C@@H]1C(=O)N(C)[C@@H](CCCNC(=N)N)C(=O)N[C@@H](CO)C(=O)N[C@@H](CC(=O)O)C(=O)N[C@@H]([C@@H](C)O)C(=O)N[C@@H](CC(C)C)C(=O)N[C@H](C(=O)N[C@@H](Cc2ccc(-c3ccccc3)cc2)C(=O)N[C@@H](CCC(=O)O)CC(=O)N[C@H](CCCCNC(=O)COCC(=O)NCCCC[C@@H](NC(=O)C[C@H](CCC(=O)O)NC(=O)[C@H](Cc2ccc(-c3ccccc3)cc2)NC(=O)[C@H]2NC(=O)[C@H](CC(C)C)NC(=O)[C@H]([C@@H](C)O)NC(=O)[C@H](CC(=O)O)NC(=O)[C@H](CO)NC(=O)[C@H](CCCNC(=N)N)N(C)C(=O)[C@@H](NC(C)=O)C(C)(C)SSC2(C)C)C(N)=O)C(N)=O)C(C)(C)SSC1(C)C [compound 135] (I: Ac-[Pen][NMeR]SDTL[Pen][Bip][β3hE][dK]-NH2 / II: Ac-[Pen][NMeR]SDTL[Pen][Bip][β3hE][dK]-NH2; disulfide I:1-I:7, II:1-II:7; linker I:10-II:10 via Diglycolyl)
IC50: < 10 nM

CC(=O)N[C@@H]1C(=O)N(C)[C@@H](CCCNC(=N)N)C(=O)N[C@@H](CO)C(=O)N[C@@H](CC(=O)O)C(=O)N[C@@H]([C@@H](C)O)C(=O)N[C@@H](CC(C)C)C(=O)N[C@H](C(=O)N[C@@H](Cc2ccc3ccccc3c2)C(=O)N[C@@H](C(=O)N[C@H](CCCCNC(=O)COCC(=O)NCCCC[C@@H](NC(=O)[C@H](NC(=O)[C@H](Cc2ccc3ccccc3c2)NC(=O)[C@H]2NC(=O)[C@H](CC(C)C)NC(=O)[C@H]([C@@H](C)O)NC(=O)[C@H](CC(=O)O)NC(=O)[C@H](CO)NC(=O)[C@H](CCCNC(=N)N)N(C)C(=O)[C@@H](NC(C)=O)C(C)(C)SSC2(C)C)[C@H](C)O)C(N)=O)C(N)=O)[C@H](C)O)C(C)(C)SSC1(C)C [compound 140] (I: Ac-[Pen][NMeR]SDTL[Pen][2Nal][dT][dK]-NH2 / II: Ac-[Pen][NMeR]SDTL[Pen][2Nal][dT][dK]-NH2; disulfide I:1-I:7, II:1-II:7; linker I:10-II:10 via Diglycolyl)
IC50: 10 to 25 nM

CCCCCCCC/C=C\CCCCCCCC(=O)N[C@@H]1C(=O)N(C)[C@@H](CCCNC(=N)N)C(=O)N[C@@H](CO)C(=O)N[C@@H](CC(=O)O)C(=O)N[C@@H]([C@@H](C)O)C(=O)N[C@@H](CC(C)C)C(=O)N[C@H](C(=O)N[C@@H](Cc2ccc(C(C)(C)C)cc2)C(=O)N[C@@H](CCC(=O)O)CC(=O)N[C@H](CCCCN)C(N)=O)C(C)(C)SSC1(C)C [compound 180] (Oleoyl-[Pen][NMeR]SDTL[Pen][Phe(4-tBu)][β3hE][dK]-NH2; disulfide 1-7)
IC50: 1000 to 10000 nM

CC(=O)N[C@H]1CSSC(C)(C)[C@@H](C(=O)N[C@@H](Cc2c[nH]c3ccccc23)C(=O)N[C@H](CCCCNC(=O)CCOCCOCCOCCOCCOCCOCCOCCOCCOCCOCCOCCOCCOCCOCCC(=O)NCCCC[C@@H](NC(=O)[C@H](Cc2c[nH]c3ccccc23)NC(=O)[C@H]2NC(=O)[C@H](CC(C)C)NC(=O)[C@H]([C@@H](C)O)NC(=O)[C@H](CC(=O)O)NC(=O)[C@H](CO)NC(=O)[C@H](CCCNC(=N)N)N(C)C(=O)[C@@H](NC(C)=O)CSSC2(C)C)C(N)=O)C(N)=O)NC(=O)[C@H](CC(C)C)NC(=O)[C@H]([C@@H](C)O)NC(=O)[C@H](CC(=O)O)NC(=O)[C@H](CO)NC(=O)[C@H](CCCNC(=N)N)N(C)C1=O [compound 36] (I: Ac-C[NMeR]SDTL[Pen]W[dK]-NH2 / II: Ac-C[NMeR]SDTL[Pen]W[dK]-NH2; disulfide I:1-I:7, II:1-II:7; linker I:9-II:9 via X4)
IC50: 50 to 100 nM

CC(=O)N[C@@H]1C(=O)N(C)[C@@H](CCCNC(=N)N)C(=O)N[C@@H](CO)C(=O)N[C@@H](CC(=O)O)C(=O)N[C@@H]([C@@H](C)O)C(=O)N[C@@H](CC(C)C)C(=O)N[C@H](C(=O)N[C@@H](Cc2c[nH]c3ccccc23)C(=O)N[C@H](Cc2ccc(O)cc2)C(=O)N[C@H](CCCCNC(=O)COCC(=O)NCCCC[C@@H](NC(=O)[C@@H](Cc2ccc(O)cc2)NC(=O)[C@H](Cc2c[nH]c3ccccc23)NC(=O)[C@H]2NC(=O)[C@H](CC(C)C)NC(=O)[C@H]([C@@H](C)O)NC(=O)[C@H](CC(=O)O)NC(=O)[C@H](CO)NC(=O)[C@H](CCCNC(=N)N)N(C)C(=O)[C@@H](NC(C)=O)C(C)(C)SSC2(C)C)C(N)=O)C(N)=O)C(C)(C)SSC1(C)C [compound 92] (I: Ac-[Pen][NMeR]SDTL[Pen]W[dY][dK]-NH2 / II: Ac-[Pen][NMeR]SDTL[Pen]W[dY][dK]-NH2; disulfide I:1-I:7, II:1-II:7; linker I:10-II:10 via Diglycolyl)
IC50: 50 to 100 nM

CC(=O)N[C@@H]1C(=O)N(C)[C@@H](CCCNC(=N)N)C(=O)N[C@@H](CO)C(=O)N[C@@H](CC(=O)O)C(=O)N[C@@H](C(C)C)C(=O)N[C@@H](CC(C)C)C(=O)N[C@H](C(=O)N[C@@H](Cc2ccc3ccccc3c2)C(=O)N[C@H](CCC(=O)O)C(N)=O)C(C)(C)SSC1(C)C [compound 156] (Ac-[Pen][NMeR]SDVL[Pen][2Nal][dE]-NH2; disulfide 1-7)
IC50: 100 to 500 nM

CC(=O)N[C@@H]1C(=O)N(C)[C@@H](CCCNC(=N)N)C(=O)N[C@@H](CO)C(=O)N[C@@H](CC(=O)O)C(=O)N[C@@H](CC2CCCCC2)C(=O)N[C@@H](CC(C)C)C(=O)N[C@H](C(=O)N[C@@H](Cc2ccc3ccccc3c2)C(=O)N[C@H](CCC(=O)O)C(N)=O)C(C)(C)SSC1(C)C [compound 158] (Ac-[Pen][NMeR]SD[Cha]L[Pen][2Nal][dE]-NH2; disulfide 1-7)
IC50: 1000 to 10000 nM

CC(C)CC(=O)N[C@@H]1C(=O)N(C)[C@@H](CCCNC(=N)N)C(=O)N[C@@H](CO)C(=O)N[C@@H](CC(=O)O)C(=O)N[C@@H]([C@@H](C)O)C(=O)N[C@@H](CC(C)C)C(=O)N[C@H](C(=O)N[C@@H](Cc2ccc(C(C)(C)C)cc2)C(=O)N[C@@H](CCC(=O)O)CC(=O)N[C@H](CCCCN)C(N)=O)C(C)(C)SSC1(C)C [compound 177] (Isovaleryl-[Pen][NMeR]SDTL[Pen][Phe(4-tBu)][β3hE][dK]-NH2; disulfide 1-7)
IC50: 50 to 100 nM

CC(=O)N[C@@H]1C(=O)N(C)[C@@H](CCCNC(=N)N)C(=O)N[C@@H](CO)C(=O)N[C@@H](CC(=O)O)C(=O)N[C@@H]([C@@H](C)O)C(=O)N[C@@H](CC(C)C)C(=O)N[C@H](C(=O)N[C@@H](Cc2c[nH]c3ccccc23)C(=O)N[C@@H](CC(N)=O)C(=O)N[C@H](CCCCNC(=O)COCC(=O)NCCCC[C@@H](NC(=O)[C@H](CC(N)=O)NC(=O)[C@H](Cc2c[nH]c3ccccc23)NC(=O)[C@H]2NC(=O)[C@H](CC(C)C)NC(=O)[C@H]([C@@H](C)O)NC(=O)[C@H](CC(=O)O)NC(=O)[C@H](CO)NC(=O)[C@H](CCCNC(=N)N)N(C)C(=O)[C@@H](NC(C)=O)C(C)(C)SSC2(C)C)C(N)=O)C(N)=O)C(C)(C)SSC1(C)C [compound 83] (I: Ac-[Pen][NMeR]SDTL[Pen]WN[dK]-NH2 / II: Ac-[Pen][NMeR]SDTL[Pen]WN[dK]-NH2; disulfide I:1-I:7, II:1-II:7; linker I:10-II:10 via Diglycolyl)
IC50: 50 to 100 nM
